The values that follow come from patent US20240306640A1, “BIOCIDAL MIXTURES” (LANXESS Deutschland GmbH, priority 2021, published 2024).

Assay in all cases: MIC, suppression of radial hyphal growth on malt extract nutrient agar
What all share (type): cell-based

The subject of one experiment is Aspergillus niger. The settings on record: Example 3 synergism test, 26° C., read-out: MIC (ppm) Aspergillus niger. The method, then:
(§1) Pieces of mycelium were punched out of a colony of the appropriate mold and incubated at 26° C. on a nutrient agar containing malt extract. Here, hyphal growth with and without active ingredient was compared.
(§2) The synergism was determined according to the method described by Kull et al. (F. C. Kull, P. C. Eismann, H. D. Sylvestrowicz, R. L. Mayer, Applied Microbiology 1961, 9, 538-541). The following relationships apply:
(§3) [formula] • SI=1 means additivity • SI>1 means antagonism • SI<1 means synergism • Qa=concentration of substance A which is the MIC • Qb=concentration of substance B which is the MIC • QA=concentration of substance A in the concentration of A/B at which microbial growth is suppressed • Qb=concentration of substance B in the concentration of A/B at which microbial growth is suppressed 3.1 Combinations of AZO and IPBC Against the Molds Aspergillus niger and Aspergillus versicolor

Another experiment has as its system Aspergillus versicolor. The conditions noted are these: Example 3 synergism test, 26° C., read-out: MIC (ppm) Aspergillus versicolor. As to the method:
as §1, §2, §3

Experiment [1] concerns Cladosporium cladosporioides. The settings on record: Example 3 synergism test, 26° C., read-out: MIC against Cladosporium cladosporioides (ppm). The method, then:
(§4) For this purpose, pieces of mycelium were punched out of a colony of the appropriate mold and incubated at 26° C. on a nutrient agar containing malt extract. Here, hyphal growth with and without active ingredient was compared.
as §1, §2, §3

The test system of another experiment is Stachybotrys chartarum. The conditions noted are these: Example 3 synergism test, 26° C., read-out: MIC against Stachybotrys chartarum (ppm). As to the method:
as §4, §1, §2, §3

The next experiment concerns Trichoderma virens. The conditions noted are these: Example 3 synergism test, 26° C., read-out: MIC against Trichoderma virens (ppm). The method, then:
as §4, §1, §2, §3

Turning to `CO/C=C(/C(=O)OC)c1ccccc1Oc1cc(Oc2ccccc2C#N)ncn1` [AZO, methyl (E)-2-{2-[6-(2-cyanophenoxy)pyrimidin-4-yloxy]phenyl}-3-methoxyacrylate], the MIC in the experiment with Aspergillus niger was determined as 5000 µg/mL; with Aspergillus versicolor, 100 µg/mL; in experiment [1], 5 µg/mL; in the experiment on Stachybotrys chartarum, 100 µg/mL; with Trichoderma virens it was 1000 µg/mL.

In general, MIC refers to the smallest concentration in the dilution series that meets the test's criterion for growth inhibition.
